From patent publication US11654136B2, “Phosphoinositide 3-kinase inhibitor with a zinc binding moiety” (Curis, Inc., priority 2011, dated 2023)
Where two headings read alike, the source gives them in different places.

How the values were obtained:
[1] = tested on: Salmonella typhimurium TA98; assay: Mini-Salmonella/mammalian-microsome reverse mutation assay TA98; conditions: for Revertants per well TA98, Mean: * positive increase
Protocol: (§1) The tester strains used in the mutagenicity assay were Salmonella typhimurium tester strains TA98 (for detecting frame-shift reverse mutation) and TA100 (for detecting point reverse mutation). The assay was conducted in both the presence and absence of S9 mixture along with concurrent vehicle (DMSO, 20 μl/well) and positive controls in duplicate using 6-well plates. […] A reproducible two-fold increase (>2× of vehicle control) of revertant colonies over the daily average control value is considered a positive response of gene mutation for each strain.
(§2) 2-nitrofluorene and sodium azide served as the positive controls in the absence of S9 for TA98 and TA100 respectively. 2-Aminoanthracene served as the positive controls in the presence of S9 for TA98 and TA100.

[2] = tested on: Salmonella typhimurium TA100; conditions: for Revertants per well TA100, Mean: * positive increase
Protocol: as §1, §2

Raf, MEK, and ERK = assay: Western blot of RAF-MEK-ERK pathway in H460, A375, BT-474 and H1975 cells; type: cell-based; conditions: 100 nM, 16 hours
Protocol: Cell extracts were prepared in the presence of SDS and 2-mercaptoethanol and resolved in polyacrylamide gels. Proteins were transferred to nitrocellulose filter and blotting was done using standard procedures with blocking solutions (Li-Cor Bioscience) containing the indicated primary antibody. Primary antibodies against p-EGFR, EGFR, p-HER2, HER2, p-HER3, HER3, p-MET, MET, p-bRaf, p-cRaf, pMEK, MEK, p-ERK, ERK and tubulin were purchased from Cell Signaling Technology. Secondary antibody conjugated with IRdye 680, 800CW were used and the signal was detected with Li-Cor Odyssey Imager.
One major limitation of PI3K inhibitors in the treatment of cancers is the activation of the RAF-MEK-ERK pathway. HDAC inhibitors are able to inhibit kinase levels in this signaling pathway in cancer cells via epigenetic modification.

[3] = +S9, positive control 0.8 μg/well
[4] = −S9, positive control 0.4 μg/well
[5] = −S9, positive control 2.0 μg/well

Structure (SMILES): Nc1ccc2cc3ccccc3cc2c1 [2-aminoanthracene, reference compound]
- Background Lawn TA98 [1, 3]: 4/4
- Revertants per well TA98, well 1 [1, 3]: >300
- Revertants per well TA98, well 2 [1, 3]: >300
- Revertants per well TA98, Mean [1, 3]: >300*
- Background Lawn TA100 [2, 3]: 4/4
- Revertants per well TA100, well 1 [2, 3]: >300
- Revertants per well TA100, well 2 [2, 3]: >300
- Revertants per well TA100, Mean [2, 3]: >300*

Structure (SMILES): O=[N+]([O-])c1ccc2c(c1)Cc1ccccc1-2 [2-nitrofluorene, reference compound]
- Background Lawn TA98 [1, 4]: 4/4
- Revertants per well TA98, well 1 [1, 4]: 55
- Revertants per well TA98, well 2 [1, 4]: 63
- Revertants per well TA98, Mean [1, 4]: 59*

Structure (SMILES): Cc1[nH]c2ccccc2c1CCNCc1ccc(/C=C/C(=O)NO)cc1 [LBH 589, reference compound]
- Activation of Raf, MEK, and ERK (Raf, MEK, and ERK): showed similar activities in some of these Western blot assays

Structure (SMILES): [N-]=[N+]=[N-] [Sodium azide, reference compound]
- Background Lawn TA100 [2, 5]: 4/4
- Revertants per well TA100, well 1 [2, 5]: >300
- Revertants per well TA100, well 2 [2, 5]: >300
- Revertants per well TA100, Mean [2, 5]: >300*
